Results taken from patent publication US7521535B2, “Anti-microbial defensin-related peptides and methods of use” (priority 2006, dated 2009).
Entries after “also recorded” stand apart in the source; their conditions may differ. Positions of bridges follow the written chain, without caps; N, C: chain ends. Chains are numbered I, II in the order given. No end group written: not given here.

B1: HD-5 (peptide, UniProt Q01523 20-94, looked up)
Defensin alpha 5: ESLQERADEATTQKQSGEDNQDLAISFAGNGLSALRTSGSQARATCYCRTGRCATRESLSGVCEISGRLYRLCCR
modifications: Defensin-5

What was measured:
[1] = system: representative Gram-positive and Gram-negative bacteria; assay: modified broth microdilution assay, summary over strains; assay type: cell-based; details: 100 mM NaCl versus no NaCl
Procedure: All bacterial strains were purchased from either MicroBiologics (St. Cloud, Minn.) or ATCC (Manassas, Va.). Bacteria were grown in trypticase soy broth (TSB) overnight and subcultured in the same broth for 3-4 h at 37° C. in a shaking incubator to the mid log phase. To study the antibacterial spectrum, a modified broth microdilution assay was used as described (26). Briefly, the mid log phase bacteria were washed with 25 mM sodium phosphate buffer, pH 7.4, and suspended in 5% TSB in 25 mM sodium phosphate, pH 7.4, to 5×10^5 CFU/ml with and without 100 mM NaCl. Bacteria (90 μl) were then dispensed in a 96-well plate, followed by addition of peptides (10 μl) serially diluted in 0.01% acetic acid. After overnight incubation at 37° C., the minimum inhibitory concentration (MIC) of each peptide was determined as the lowest concentration that gave no visible bacterial growth.
Refolded rattusin was then used to study its antibacterial activity against representative Gram-positive and Gram-negative bacteria by a modified broth microdilution assay with and without 100 mM NaCl.

[2] = system: E. coli O157:H7 ATCC 700728; assay: kinetics of bacterial killing, colony counting assay; assay type: cell-based; details: 4 μM peptide; for killing of E. coli: no NaCl, within 2 h
Procedure: (§1) FIG. 4. Kinetics of killing of E. coli O157:H7 in the absence (A) and presence (B) of 100 mM NaCl by rattusin, cryptdin-4 and HD-5. E. coli O157:H7 ATCC 700728 was incubated with 4 μM rattusin, cryptdin-4, HD-5, or an equal volume of 0.01% acetic acid (no peptide) in duplicate in 25 mM sodium phosphate buffer, pH 7.4, 1% TSB with and without 100 mM NaCl for 10, 30, 60, 120 and 240 min. Surviving bacteria were plated and counted. Data shown are means ± SEM of two independent experiments.
(§2) To study the kinetics of bacterial killing, a standard colony counting assay was used as described (26). Rattusin and cryptin-4 were incubated with 90 μl of 5×10^5 CFU/ml Staphylococcus aureus ATCC 25923 at the concentration of 2 μM each or with E. coli O157:H7 at the concentration of 4 μM each in 25 mM sodium phosphate buffer, pH 7.4, with and without 100 mM NaCl. The reaction was incubated at 37° C. for 10, 30, 60, 120 and 240 min and diluted rapidly with ice-cold PBS and plated immediately. Plates were incubated at 37° C. for 14-18 hours and viable bacteria were counted.

S. aureus [3] = assay: effect of salinity on antibacterial activity; assay type: cell-based; details: 2 μM peptide, 4 h, up to 200 mM NaCl
Procedure: (§3) FIG. 6. Effect of salinity on the antibacterial activity of rattusin against S. aureus (A) and E. coli O157:H7 (B). S. aureus and E. coli were incubated with 2 and 4 μM of rattusin, or an equal volume of 0.01% acetic acid (no peptide) in 25 mM sodium phosphate buffer, pH 7.4, 1% TSB with increasing concentrations of NaCl, for 4 h. Surviving bacteria were plated and counted. Data shown are means ± SEM of two independent experiments.

E. coli O157:H7 [4] = assay: effect of salinity on antibacterial activity; assay type: cell-based; details: 4 μM peptide, 4 h, up to 200 mM NaCl
Procedure: as §3

S. aureus ATCC 25923 = assay: kinetics of bacterial killing, colony counting assay; assay type: cell-based, Staphylococcus aureus; details: 2 μM peptide
Procedure: as §1, with “FIG. 5.” for “FIG. 4.”, “of S. aureus” for “of E. coli O157:H7”, “HD-5. S. aureus” for “HD-5. E. coli O157:H7”, “ATCC 25923” for “ATCC 700728”, “with 2” for “with 4”
as §2

Caco-2 cells = assay: cytotoxicity assay, alamarBlue dye; assay type: cell-based, human; details: 100 μM peptide, 24 h, DMEM with and without 10% FBS
Procedure: FIG. 8. Absence of cytotoxicity of rattusin and cryptdin-4 to Caco-2 cells. Cells were incubated with 100 μM of rattusin, cryptdin-4 or fowlicidin-1 for 24 h in DMEM with and without 10% fetal bovine serum for 24 hours. Cell viability was measured with an alamarBlue dye-based method. Data are representative of two independent experiments done in duplicate.
Cytotoxicity against human colon adenocarcinoma (CACO-2) cell line (ATCC, Manassas, Va.) was measured using alamarBlue dye (Biosource, Camarillo, Calif.) as described previously (26, 27). Briefly, CACO-2 cells were seeded into 96 well plate at 5×10^4 in Dulbecco's modified Eagle's medium (DMEM) with 10% FBS and were grown overnight. The next day cells were washed once with DMEM followed by the addition of fresh DMEM with and without 10% FBS and 100 μM of rattusin or cryptdin-4 or fowlicidin-1. […] The plate was read with excitation at 545 nm and emission at 590 nm. The percentage of cell death was calculated as [1−(Fpeptide−Fbackground)/(Facetic acid−Fbackground)]×100, where Fpeptide is the fluorescence of cells exposed to 100 μM peptide, Facetic acid is the fluorescence of cells exposed to 0.01% acetic acid only, and Fbackground is the background fluorescence of 10% alamarBlue dye in cell culture medium without cells.

E. coli O157:H7 [5] = assay: effect of Mg2+ on antibacterial activity; assay type: cell-based; details: 4 μM peptide, 0, 1, 2 and 5 mM MgCl2, 4 h
Procedure: (§4) FIG. 7. Effect of Mg^2+ on the antibacterial activity of rattusin and cryptdin-4 against S. aureus (A) and E. coli O157:H7 (B). S. aureus or E. coli were incubated with rattusin, cryptdin-4, or an equal volume of 0.01% acetic acid (no peptide) in 25 mM sodium phosphate buffer, containing 1% TSB with 0, 1, 2 and 5 mM MgCl2, pH 7.4, for 4 h. Surviving bacteria were plated and counted. Both peptides were used at identical concentrations for each bacterial strain (2 and 4 μM against S. aureus and E. coli, respectively). Data shown are means ± SEM of 2-3 independent experiments.
(§5) The effect of Mg^2+ on the antibacterial activity was studied by incubating rattusin and cryptdin-4 for 4 h with 90 μl of 5×10^5 CFU/ml Staphylococcus aureus at a concentration of 2 μM each or with E. coli O157:H7 at a concentration of 4 μM each in 1% TSB, 25 mM sodium phosphate buffer, containing 0, 1, 2 and 5 mM of MgCl2, pH 7.4.

S. aureus [6] = assay: effect of Mg2+ on antibacterial activity; assay type: cell-based, Staphylococcus aureus; details: 2 μM peptide, 0, 1, 2 and 5 mM MgCl2, 4 h
Procedure: as §4, §5

bacteria = assay: preliminary antibacterial studies, reduced versus refolded rattusin; assay type: cell-based; details: data not shown
Source text: Similar to several α- and β-defensins (49-52), the central cysteine-rich motif of rattusin is flanked by long flexible N- and C-terminal tails, which are primarily composed of charged and uncharged polar residues (Table 2). The impact of N- and C-terminal tails and five cysteines of rattusin on its antibacterial, cytotoxic, chemotactic, and immuno-modulatory functions is investigated.

| Molecule | antibacterial activity in the presence of 100 mM NaCl [1] | killing of E. coli in the presence of 100 mM NaCl [2] | killing of E. coli [2] | antibacterial activity with increasing concentrations of NaCl (S. aureus [3]) | antibacterial activity with increasing concentrations of NaCl (E. coli O157:H7 [4]) | killing of S. aureus in the presence of 100 mM NaCl (S. aureus ATCC 25923) | cytotoxicity to Caco-2 cells (Caco-2 cells) | activity against E. coli in the presence of MgCl2 (E. coli O157:H7 [5]) | effect of Mg2+ on activity against S. aureus (S. aureus [6]) | antibacterial activity in high salt (bacteria) |
| --- | --- | --- | --- | --- | --- | --- | --- | --- | --- | --- |
| I: LRVRRTLQCSCRRVCRNTCSCIRLSRSTYAS / II: LRVRRTLQCSCRRVCRNTCSCIRLSRSTYAS (disulfide I:9-II:21, I:11-II:19, I:15-II:15, I:19-II:11, I:21-II:9) [Rattusin] | remained largely unchanged | slightly delayed with a complete killing occurring at 4 h | three logs | maintained antibacterial activity | maintained antibacterial activity | largely unaffected | no cytotoxicity | largely unaffected | did not inhibit; also recorded: potentiated |  |
| LRVRRTLQCSCRRVCRNTCSCIRLSRSTYAS [reduced peptide, rattusin in the reduced form, without disulfide bonds] |  |  |  |  |  |  |  |  |  | lost significant activities |
| B1 |  | completely inactivated | three logs |  |  | significantly inhibited |  |  |  |  |
